According to US20090305321A1, “Assays for Allosteric Modulators of G-Protein Coupled Receptors (GPCRs)” (ASTRAZENECA AB, priority 2005, published 2009):

Assays:
[1] = target: T1, human Chemokine receptor CXCR2 (Homo sapiens, UniProt P25025); assay: CXCR2 membrane [125I]IL-8 radioligand binding assay; details: FIG. 2
T1 construct: expressed in transfected cells
T1 sequence (P25025 1-360): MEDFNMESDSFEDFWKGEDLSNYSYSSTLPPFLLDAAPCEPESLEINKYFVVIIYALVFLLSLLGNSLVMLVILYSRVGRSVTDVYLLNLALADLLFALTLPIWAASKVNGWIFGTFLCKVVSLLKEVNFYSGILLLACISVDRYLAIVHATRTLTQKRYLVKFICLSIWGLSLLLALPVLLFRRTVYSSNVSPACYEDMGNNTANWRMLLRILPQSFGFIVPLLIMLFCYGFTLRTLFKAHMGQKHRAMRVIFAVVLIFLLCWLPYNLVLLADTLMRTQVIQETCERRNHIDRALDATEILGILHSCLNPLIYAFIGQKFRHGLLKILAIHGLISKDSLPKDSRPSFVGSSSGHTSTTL
Experimental: HEK 293 cells were transfected with CXCR2 receptor using the lipofection reagent Fugene 6 (Roche). […] Stable HEK-CXCR2 transfectants were grown to approximately 80% confluence in 10-layer cell factories in DMEM medium containing 10% (v/v) foetal calf serum and glutamine (2 mM) in a humidified incubator at 37° C., 5% CO2. Cells were harvested from the flask using Accutase at 37° C. for 3 to 5 minutes.
Cells were resuspended on ice in 60 mL hypotonic buffer at a density of 2×10^7 cells/mL. Membranes were prepared on ice by homogenisaton using a polytron tissue homogenizer set at 22000 rpm. The membrane preparation was purified by sucrose gradient centrifugation. In each of 4 centrifuge tubes 15 mL of cell membranes was layered onto 10 mL 41% (w/v) sucrose solution and the tubes centrifuged at 140000 g for 1 hour at 4° C. […]
Following incubation, the plate containing the assay mixture was filter-washed with 200 μL cold HEPES-buffered salt solution using a Millipore vacuum manifold. The filtration plate was allowed to air dry then either the individual filters were punched out into polypropylene test tubes and the radioactivity measured by direct gamma counting using a Cobra II Gamma counter (Packard BioScience) for 1 minute per sample or alternatively, the whole filtration plate was placed in a carrier plate and 50 μL of MicroScint-O added to each well. […]

[2] = target: CCR5 (Homo sapiens, UniProt P51681); assay: Chemokine receptor panel (assays similar to Example 1 and 2), CCR5; format: binding; details: CCR5, 10 uM
Experimental: (§1) Membranes (80 μL of 1×10^6 cell equivalents/mL) were then added, giving a total incubation volume of 100 μL per well. The plates were incubated for 2 hours at room temperature.
(§2) HEK 293 transfectants were seeded at 5×10^4 cells per well in 96 well poly-D lysine coated black with clear bottom plates (Becton Dickinson) and cultured for 16 h at 37° C. with an atmosphere of 5% CO2/95% air to form confluent monolayers. The following day cells were loaded with 5 μM Flura 3 AM diluted in tyrodes solution (137 mM NaCl, 10 mM HEPES, 0.441 mM KH2PO4, 2.67 mM KCl, 1.8 mM CaCL2, 1 mM MgCl2) with 6.25 mM probenecid at pH7.4, 100 μl per well and incubated at 37° C. with an atmosphere of 5% CO2/95% air for 1 h. After which the loading media was removed and the cells washed twice with PBS/HEPES solution (100 μl per well) then overlayed with 50 μl assay buffer (tyrodes buffer without probenecid). 50 μl inhibitor compound or 50 μl 0.2% (v/v) DMSO carrier diluted in assay buffer was then added per well and incubated for 30 minutes at room temperature before the addition of 50 μl 3 mM Carbachol per well. Calcium flux responses were measured using a Fluorometric Imaging Plate Reader (Molecular Devices) for 3 minutes before the addition of either IL-8 (50 μl, 1×10^−7-3×10^−11 M final concentration) or GROalpha. […] Fluorescence readings were taken every 2 seconds for a total run time of 6 minutes.

[3] = target: T2, CX3CR1 (Homo sapiens, UniProt P49238); assay: biochemical
T2 sequence (P49238 1-355): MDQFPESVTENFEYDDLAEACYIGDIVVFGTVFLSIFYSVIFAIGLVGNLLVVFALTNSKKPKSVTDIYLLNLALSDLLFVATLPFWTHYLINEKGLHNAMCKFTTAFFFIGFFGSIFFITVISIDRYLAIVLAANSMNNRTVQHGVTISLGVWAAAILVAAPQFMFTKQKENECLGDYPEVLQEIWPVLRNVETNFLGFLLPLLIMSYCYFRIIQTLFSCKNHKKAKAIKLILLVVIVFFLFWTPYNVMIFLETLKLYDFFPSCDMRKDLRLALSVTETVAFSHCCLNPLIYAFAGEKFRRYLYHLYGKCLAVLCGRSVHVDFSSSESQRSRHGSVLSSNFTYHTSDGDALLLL

[4] = target: T3, CCR1 (Homo sapiens, UniProt P32246); assay: Chemokine receptor panel (assays similar to Example 1 and 2), CCR1; format: binding; details: CCR1, 10 uM
T3 sequence (P32246 1-355): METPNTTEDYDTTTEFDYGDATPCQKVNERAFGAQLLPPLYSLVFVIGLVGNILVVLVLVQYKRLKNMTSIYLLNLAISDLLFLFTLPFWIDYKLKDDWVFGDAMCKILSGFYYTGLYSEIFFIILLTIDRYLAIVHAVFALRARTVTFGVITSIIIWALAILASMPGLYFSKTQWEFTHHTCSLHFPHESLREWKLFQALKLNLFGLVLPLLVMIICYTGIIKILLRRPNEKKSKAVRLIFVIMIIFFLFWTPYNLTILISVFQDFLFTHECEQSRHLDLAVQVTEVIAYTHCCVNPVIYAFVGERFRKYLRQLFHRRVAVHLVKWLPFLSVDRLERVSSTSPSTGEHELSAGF

[5] = target: T4, CXCR2 (Homo sapiens, UniProt P25025); assay: HEK FLIPR intracellular calcium assay, wild type CXCR2; format: cell-based; details: Compound A 30 nM (10 nM and 30 nM in Example 5), Compound B 100 nM
T4 construct: expressed in transfected cells
T4 sequence (P25025 1-360): T1 sequence (P25025 1-360)
Experimental: HEK cells, transfected with the human recombinant CXCR2 receptor, were grown to approximately 80% confluence in 225 cm^2 flasks in DMEM-Glutamax medium containing, non-essential amino acids, 10% (v/v) FCS in a humidified incubator at 37° C., 5% CO2. Cells were harvested from the flask using 10× trypsin at 37° C. for 1 to 2 minutes.
(§3) All points were reproduced in triplicate on each plate.

[6] = target: T5, CCR2b (Homo sapiens, UniProt P41597); assay: Chemokine receptor panel (assays similar to Example 1 and 2), CCR2b; format: binding
T5 sequence (P41597 1-360 isoform P41597-2): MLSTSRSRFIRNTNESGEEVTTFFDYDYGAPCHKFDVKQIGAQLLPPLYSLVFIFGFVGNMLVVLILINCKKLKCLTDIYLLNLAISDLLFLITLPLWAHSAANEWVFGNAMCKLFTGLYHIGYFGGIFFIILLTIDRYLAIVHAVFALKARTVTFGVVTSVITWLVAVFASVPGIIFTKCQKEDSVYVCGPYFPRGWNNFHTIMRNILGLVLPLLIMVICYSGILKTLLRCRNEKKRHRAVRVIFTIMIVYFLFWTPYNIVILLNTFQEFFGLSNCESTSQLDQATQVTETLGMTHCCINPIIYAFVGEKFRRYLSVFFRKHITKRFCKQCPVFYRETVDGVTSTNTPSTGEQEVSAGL

[7] = target: T6, CXCR1 (Homo sapiens, UniProt P25024); assay: Chemokine receptor panel (assays similar to Example 1 and 2), CXCR1; format: binding
T6 sequence (P25024 1-350): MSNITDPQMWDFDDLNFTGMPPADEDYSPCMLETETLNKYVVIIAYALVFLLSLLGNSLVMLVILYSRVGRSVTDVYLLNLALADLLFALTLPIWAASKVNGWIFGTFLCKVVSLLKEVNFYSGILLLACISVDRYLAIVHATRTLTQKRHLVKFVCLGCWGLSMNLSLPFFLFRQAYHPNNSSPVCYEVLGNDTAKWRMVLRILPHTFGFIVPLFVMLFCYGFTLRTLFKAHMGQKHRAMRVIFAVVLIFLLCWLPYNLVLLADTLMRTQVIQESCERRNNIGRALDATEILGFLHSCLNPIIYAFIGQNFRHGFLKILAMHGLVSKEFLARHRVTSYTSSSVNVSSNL
Text: as §3

[8] = target: T7, GST-CXCR2 fusion protein (human CXCR2 residues G318 to L360) (Homo sapiens, UniProt P25025); assay: [3H]Compound A radioligand binding to GST-CXCR2 C terminal tail; details: 20 nM [3H]Compound A, FIG. 21, average of three experiments
T7 construct: made in house; host or cells: E. coli
Experimental: An expression construct which encodes for S. Japonicum glutathione-S-transferase (GST) fused to the last 43 amino acids of human CXCR2 (residues G318 to L360) was generated by standard molecular biological techniques.
The protein was expressed in E. coli and the resulting fusion protein was purified from the cell extract via chromatography using a 5 ml GSTrap column (Amersham) which binds GST containing proteins, and eluted using 10 mM reduced glutathione in the elution buffer. At the same time GST without a CXCR2 C-terminal tail was also expressed and purified as a control. Both proteins had the excess 10 mM glutathione removed using a XK26/10 desalting column (Amersham).
Protein solutions (50 μL dilutions starting at 1.28 mg/ml) of either GST-CXCR2 fusion or wild type GST were then added, giving a total incubation volume of 200 μL per well.
A GF-B filter plate was set up containing 50 μl of 1 mg/ml gelatine in PBS in each well, which was then filtered through the plate and discarded. […] After filtering, 100 μl filtrate was transferred to a lumaplate and dried down in a 50° C. oven overnight and then counted on the TopCount instrument (Packard BioScience)

[9] = target: T8, wild type GST (Schistosoma japonicum, UniProt P08515); assay: [3H]Compound A radioligand binding to wild type GST control; details: 20 nM [3H]Compound A; FIG. 21, average of three experiments
T8 construct: made in house; host or cells: E. coli
Experimental: Protein solutions (50 μL dilutions starting at 1.28 mg/ml) of either GST-CXCR2 fusion or wild type GST were then added, giving a total incubation volume of 200 μL per well. The plates were incubated for 2 hours at room temperature.
A GF-B filter plate was set up containing 50 μl of 1 mg/ml gelatine in PBS in each well, which was then filtered through the plate and discarded. 100 μl filter mix (160 mg/ml charcoal (dextran coated) in PBS containing 1 mg/ml gelatine) was then filtered through the plate and then 150 μl assay mix was then filtered through the prepared filter plate (The charcoal catches the excess un-bound compound). After filtering, 100 μl filtrate was transferred to a lumaplate and dried down in a 50° C. oven overnight and then counted on the TopCount instrument (Packard BioScience)

[10] = target: T9, CCR4 (Homo sapiens, UniProt P51679); assay: Chemokine receptor panel (assays similar to Example 1 and 2), CCR4; format: binding
T9 sequence (P51679 1-360): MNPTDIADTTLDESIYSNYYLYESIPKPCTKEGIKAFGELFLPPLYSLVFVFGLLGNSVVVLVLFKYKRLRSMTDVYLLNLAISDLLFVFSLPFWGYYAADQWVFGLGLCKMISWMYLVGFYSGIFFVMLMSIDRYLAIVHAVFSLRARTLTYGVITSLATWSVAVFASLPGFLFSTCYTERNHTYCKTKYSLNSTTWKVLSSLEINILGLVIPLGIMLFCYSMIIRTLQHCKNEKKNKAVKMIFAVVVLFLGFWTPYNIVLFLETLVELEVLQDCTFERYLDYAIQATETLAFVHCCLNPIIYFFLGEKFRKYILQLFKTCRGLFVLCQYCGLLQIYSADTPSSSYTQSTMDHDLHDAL
Experimental: as §1, §2

[11] = target: T4, CXCR2; assay: [3H]-Compound C binding assay on CXCR2 membranes; details: 20 nM [3H]Compound C, FIG. 3
Experimental: Following incubation, the plate containing the assay mixture was transferred to GF-B plates and filter-washed with cold HEPES-buffered salt solution using a Tomtec harvester. The filtration plate was allowed to air dry then 20 μl of MicroScint-0 added to each well. 96-well plate scintillation counting was performed using a TopCount instrument (Packard BioScience) for 1 minute per sample well.

Sequence of CCR5 (P51681 whole entry): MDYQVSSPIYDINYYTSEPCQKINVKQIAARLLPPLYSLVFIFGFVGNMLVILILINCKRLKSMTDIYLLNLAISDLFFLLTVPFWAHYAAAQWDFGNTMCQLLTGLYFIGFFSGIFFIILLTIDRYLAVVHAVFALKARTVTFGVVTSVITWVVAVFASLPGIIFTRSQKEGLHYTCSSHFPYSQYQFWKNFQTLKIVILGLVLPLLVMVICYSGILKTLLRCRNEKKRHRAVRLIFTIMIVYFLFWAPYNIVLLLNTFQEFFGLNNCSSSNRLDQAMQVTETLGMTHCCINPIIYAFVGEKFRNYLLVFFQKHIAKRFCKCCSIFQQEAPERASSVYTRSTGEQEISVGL
T8 sequence (P08515 whole entry): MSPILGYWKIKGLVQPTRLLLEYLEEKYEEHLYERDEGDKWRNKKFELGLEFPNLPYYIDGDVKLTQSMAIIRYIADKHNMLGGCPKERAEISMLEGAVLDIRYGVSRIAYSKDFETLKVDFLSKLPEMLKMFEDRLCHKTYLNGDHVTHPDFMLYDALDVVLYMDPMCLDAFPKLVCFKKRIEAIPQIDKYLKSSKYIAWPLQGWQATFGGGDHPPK
T7 sequence (P25025 with tags, fused parts or gaps): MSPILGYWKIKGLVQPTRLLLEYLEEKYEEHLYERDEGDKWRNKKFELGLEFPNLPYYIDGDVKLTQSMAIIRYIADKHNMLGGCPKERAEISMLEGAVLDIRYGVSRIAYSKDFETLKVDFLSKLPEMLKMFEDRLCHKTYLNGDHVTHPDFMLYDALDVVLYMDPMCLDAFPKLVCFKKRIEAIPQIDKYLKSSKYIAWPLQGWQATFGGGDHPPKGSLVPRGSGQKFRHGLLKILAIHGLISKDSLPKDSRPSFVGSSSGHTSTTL

## IL-8: C-X-C chemokine, endogenous CXCR2/CXCR1 agonist ligand; non-radioactive IL-8 used as competitor
[1]
  inhibition of [125I]-IL-8 binding: able to inhibit the binding

## C[C@H](CO)Nc1nc(SCc2cccc(Cl)c2F)nc2[nH]c(=O)sc12 [Compound A]
[2]
  inhibition at 10 µM: 72%
[3]
  IC50: 251 nM
[4]
  inhibition at 10 µM: 62%
[5]
  activity (inhibition of IL-8-induced calcium release): active against CXCR2
[6]
  IC50: 158 nM
[7]
  IC50: 251 nM
[8]
  radiolabelled binding to GST-CXCR2 fusion protein on addition of excess cold compound: decrease in radiolabelled binding
[9]
  compound binding to wild type GST control protein: minimal compound binding
[10]
  IC50: 7940 nM

## NS(=O)(=O)c1c(Cl)ccc(NC(=O)Nc2cccc(Cl)c2Cl)c1O [Compound B]
[5]
  activity (inhibition of IL-8-induced calcium release): active against CXCR2

## C[C@H](CO)Nc1nc(SCc2ccccc2)nc2nc(N)sc12 [Compound C]
[1]
  inhibition of [125I]-IL-8 binding: able to inhibit the binding
[11]
  binding to CXCR2 / displacement of radio-labelled Compound C: can bind to CXCR2
